# Reference: patent US20140080886A1, “Methods for Treating HCV” (priority 2012, published 2014)
# Read-outs that look alike come from different tables or passages of the source.
# Assays:
# Assay type in all cases: cell-based
# [1] = test system: HCV replicon containing NS5A from genotype 2b; assay: Stable 1b-Con1 replicon cell line containing a portion of NS5A from genotype 2b (luciferase); details: Hepatitis C virus
# Method: (§1) This replicon construct contains a NotI restriction site upstream of NS5A, and a BlpI restriction site just after NS5A amino acid 214. Viral RNA from infected subjects was isolated according to Middleton et al., J VIROL METHODS 145:137-145 (2007) and Tripathi et al., ANTIVIRAL RES 73:40-49 (2007). RT-PCR was conducted on the RNA to generate a DNA fragment encoding NS5A amino acids 1-214. The PCR fragment incorporated NotI and BlpI compatible ends, and this fragment was ligated into a plasmid containing the 1b-Con1 replicon. Stable cell lines were generated by introducing these constructs into Huh-7 cells.
# (§2) Briefly, replicon-containing cells were seeded into 96-well plates at a density of 5000 cells per well in 100 μl DMEM containing 5% FBS. The following day, compounds were diluted in dimethyl sulfoxide (DMSO) to generate a 200× stock in a series of eight half-log dilutions. The dilution series was then further diluted 100-fold in the medium containing 5% FBS. […] Luciferin solution (50 μl, Promega) was added to each well, and luciferase activity was measured with a Victor II luminometer (Perkin-Elmer). The percent inhibition of HCV RNA replication was calculated for each compound concentration and the EC50 value was calculated using nonlinear regression curve fitting to the 4-parameter logistic equation and GraphPad Prism 4 software (Halfman, METHODS ENZYMOL 74 Pt C: 481-497 (1981)). […]
# [2] = test system: HCV replicons containing NS5A genes from genotype 3a HCV infected humans; assay: Transient replicon (shuttle vector) assay with NS5A genes from patient isolates, genotype 3a
# [3] = test system: HCV replicon containing NS5A from genotype 6a; assay: Stable 1b-Con1 replicon cell line containing a portion of NS5A from genotype 6a (luciferase); details: Hepatitis C virus
# Method: as §1, §2
# [4] = test system: HCV replicon containing NS5A from genotype 2a; assay: Stable 1b-Con1 replicon cell line containing a portion of NS5A from genotype 2a (luciferase); details: Hepatitis C virus
# Method: as §1, §2
# [5] = test system: HCV replicons containing NS5A genes from genotype 1b HCV infected humans; assay: Transient replicon (shuttle vector) assay with NS5A genes from patient isolates, genotype 1b
# [6] = test system: HCV genotype 1b-Con1 replicon; assay: HCV stable subgenomic replicon cell culture assay (luciferase reporter), genotype 1b-Con1; details: Hepatitis C virus
# [7] = test system: HCV replicons containing NS5A genes from genotype 2a HCV infected humans; assay: Transient replicon (shuttle vector) assay with NS5A genes from patient isolates, genotype 2a; details: Hepatitis C virus
# [8] = test system: HCV genotype 1a-H77 replicon; assay: HCV stable subgenomic replicon cell culture assay (luciferase reporter), genotype 1a-H77; details: Hepatitis C virus
# [9] = test system: HCV replicons containing NS5A genes from genotype 2b HCV infected humans; assay: Transient replicon (shuttle vector) assay with NS5A genes from patient isolates, genotype 2b
# [10] = test system: HCV replicon containing NS5A from genotype 4a; assay: Stable 1b-Con1 replicon cell line containing a portion of NS5A from genotype 4a (luciferase); details: Hepatitis C virus
# Method: as §1, §2
# [11] = test system: HCV replicon containing NS5A from genotype 3a; assay: Stable 1b-Con1 replicon cell line containing a portion of NS5A from genotype 3a (luciferase); details: Hepatitis C virus
# Method: as §1, §2
# [12] = test system: HCV replicons containing NS5A genes from genotype 6a HCV infected humans; assay: Transient replicon (shuttle vector) assay with NS5A genes from patient isolates, genotype 6a
# [13] = test system: HCV replicon containing NS5A from genotype 5a; assay: Stable 1b-Con1 replicon cell line containing a portion of NS5A from genotype 5a (luciferase); details: Hepatitis C virus
# Method: as §1, §2
# [14] = read-out: Mean EC50, pM, ± Std. Dev.
smiles,measurement,setting,value
"COC(=O)N[C@H](C(=O)N1CCC[C@H]1C(=O)Nc1ccc([C@@H]2CC[C@@H](c3ccc(NC(=O)[C@@H]4CCCN4C(=O)[C@@H](NC(=O)OC)C(C)C)cc3)N2c2ccc(C(C)(C)C)cc2)cc1)C(C)C [Compound 1, dimethyl (2S,2′S)-1,1′-((2S,2′S)-2,2′-(4,4′-((2S,5 S)-1-(4-tert-butylphenyl)pyrrolidine-2,5-diyl)bis(4,1-phenylene))bis(azanediyl)bis(oxomethylene)bis(pyrrolidine-2,1-diyl))bis(3-methyl-1-oxobutane-2,1-diyl)dicarbamate]",EC50,[1]; read-out: EC50 value,< 20 pM
same,EC50,[1]; [14],4.3 ± 1.2 pM
same,EC50,"[2]; Genotype 3a, isolate 55500, variant K30 (A30K)",55.2 pM
same,EC50,"[2]; Hepatitis C virus, Genotype 3a, isolate 7153-55",2.32 pM
same,EC50,"[2]; Hepatitis C virus, Genotype 3a, isolate 9110-47",3.87 pM
same,EC50,"[2]; Hepatitis C virus, Genotype 3a, isolate 48557",11.4 pM
same,EC50,"[2]; Hepatitis C virus, Genotype 3a, isolate 55500, variant K30 (A30K)",55 pM
same,EC50,"[2]; Hepatitis C virus, Genotype 3a, isolate 55510",3.03 pM
same,EC50,"[2]; Hepatitis C virus, Genotype 3a, isolate 55534",3.28 pM
same,EC50,"[2]; Hepatitis C virus, Genotype 3a, isolate 57223",4.14 pM
same,EC50,"[2]; Hepatitis C virus, Genotype 3a, isolate 57314",2.02 pM
same,EC50,"[2]; Hepatitis C virus, Genotype 3a, isolate 85501",3.05 pM
same,EC50,"[2]; Hepatitis C virus, Genotype 3a, isolate 89241, variant V28",2.71 pM
same,EC50,"[2]; Hepatitis C virus, Genotype 3a, isolate 95079",15.2 pM
same,EC50,"[2]; Hepatitis C virus, Genotype 3a, isolate 9810069",2.52 pM
same,EC50,"[2]; Hepatitis C virus, read-out: EC50, pM, Mean ± Std. Dev., mean of 12 of the 13 genotype 3a samples (without the A30K sample)",4.5 pM
same,EC50,"[2]; read-out: EC50, pM, Mean ± Std. Dev., mean of 12 of the 13 genotype 3a samples (without the A30K sample)",4.54 ± 4.26 pM
same,EC50,[3]; read-out: EC50 value,< 500 pM
same,EC50,[3]; [14],415 ± 97 pM
same,EC50,[4]; read-out: EC50 value,< 20 pM
same,EC50,[4]; [14],12.4 ± 2.7 pM
same,EC50,"[5]; Hepatitis C virus, Genotype 1b, isolate 1393",1.15 pM
same,EC50,"[5]; Hepatitis C virus, Genotype 1b, isolate 4377",1.53 pM
same,EC50,"[5]; Hepatitis C virus, Genotype 1b, isolate 4386",1.21 pM
same,EC50,"[5]; Hepatitis C virus, Genotype 1b, isolate 4410",1.2 pM
same,EC50,"[5]; Hepatitis C virus, Genotype 1b, isolate 9432",1.12 pM
same,EC50,"[5]; Hepatitis C virus, read-out: EC50, pM, Mean ± Std. Dev, mean of the 11 genotype 1b clinical isolates",1 pM
same,EC50,"[5]; read-out: EC50, pM, Mean ± Std. Dev, mean of the 11 genotype 1b clinical isolates",1.03 ± 0.23 pM
same,EC50,"[6]; Genotype 1b-Con1 replicon, 0% human plasma (5% fetal bovine serum), read-out: Mean EC50, pM, ± Std. Dev.",5 ± 1.9 pM
same,EC50,"[6]; against HCV genotype 1b (summary statement), read-out: EC50 value",< 20 pM
same,EC50,"[7]; Genotype 2a, isolate 34021",5.07 pM
same,EC50,"[7]; Genotype 2a, isolate 84836",11.3 pM
same,EC50,"[7]; Genotype 2a, isolate 88935",2.56 pM
same,EC50,"[7]; Genotype 2a, isolate 88939",2.03 pM
same,EC50,"[7]; Genotype 2a, isolate 91106",3.39 pM
same,EC50,"[7]; Genotype 2a, isolate 10124423",3.46 pM
same,EC50,"[7]; Genotype 2a, isolate U01",4.79 pM
same,EC50,"[7]; read-out: EC50, pM, Mean ± Std. Dev., mean of the genotype 2a isolates (methionine at NS5A position 31)",3.8 pM
same,EC50,"[8]; Genotype 1a-H77 replicon, 0% human plasma (5% fetal bovine serum), read-out: Mean EC50, pM, ± Std. Dev.",14.1 ± 6.8 pM
same,EC50,"[8]; against HCV genotype 1a (summary statement), read-out: EC50 value",< 20 pM
same,EC50,"[8]; genotype 1a and 1b replicons together, in the presence of 5% FBS, read-out: mean EC50 values",5 to 14 pM
same,EC50,"[9]; Hepatitis C virus, Genotype 2b, isolate 48477",1.11 pM
same,EC50,"[9]; Hepatitis C virus, Genotype 2b, isolate 51629, variant F28",44.7 pM
same,EC50,"[9]; Hepatitis C virus, Genotype 2b, isolate 9992612",5.15 pM
same,loss in activity,[9]; genotype 2b sample containing L28F variant,75 fold
same,EC50,"[9]; read-out: EC50, pM, Mean ± Std. Dev., mean of 13/14 genotype 2b samples (without the L28F sample)",1.08 ± 1.23 pM
same,EC50,[10]; read-out: EC50 value,< 20 pM
same,EC50,[10]; [14],1.71 ± 0.88 pM
same,EC50,[11]; read-out: EC50 value,< 20 pM
same,EC50,[11]; [14],19.3 ± 5.8 pM
same,EC50,"[12]; Hepatitis C virus, isolate 1110880, variant L28",0.042 nM
same,EC50,"[12]; Hepatitis C virus, isolate 1110880-L28F, variant F28 (L28F mutation introduced)",0.068 nM
same,EC50,"[12]; isolate 1110880, variant L28",0.0423 nM
same,EC50,"[12]; isolate 1110880-L28F, variant F28 (L28F mutation introduced)",0.068 nM
same,EC50,[13]; read-out: EC50 value,< 20 pM
same,EC50,[13]; [14],4.3 ± 0.9 pM
